What was measured:
[1] = system: endogenous FAP in plasma; assay: PD study in hamsters: plasma FAP activity and endogenous FGF21; assay type: in vivo, Golden Syrian hamsters; details: hamster, 1 mg/kg IV or 10 mg/kg PO
Description: To assess the effect of FAP inhibition by an exemplary compound over the cleavage of endogenously produced FGF21, in vivo PK/PD studies were conducted in male Golden Syrian hamsters following single intravenous and oral administration of an exemplary compound.
Hamsters from Group 1 received an intravenous bolus via jugular vein of 1 mg/kg of compound 13 (an exemplary compound). On the other hand, hamsters from Group 2 received an intragastric bolus of 10 mg/kg of compound 13 (an exemplary compound) using feeding needles.
Plasma samples were collected at 5, 10, 15, 30, 60, 120, 240, 360, 480 and 1440 minutes post-dose in both IV and PO groups. Hamsters from group 3 were not dosed and were used to collect samples of zero time point and baseline levels of FAP activity and endogenous FGF21.
Blood aliquots (100-150 μL) were collected from jugular vein catheterized hamsters in tubes coated with EDTA-K2, mixed gently, then kept on ice and centrifuged at 2,500×g for 15 minutes at 4° C., within 1 hour of collection. […]
Levels of endogenous hamster FGF21 in the plasma samples were quantified by using an ELISA kit (Cat. No. #EZRMFGF21-26K, Millipore) according to the manufacturer's instructions. […] Plasma samples of non-dosed animals were analyzed as a pool of plasma. […]

[2] = PK study in hamsters (IV and PO); assay type: in vivo; details: male, Golden Syrian, plasma, hamster
Description: To assess the effect of FAP inhibition by an exemplary compound over the cleavage of endogenously produced FGF21, in vivo PK/PD studies were conducted in male Golden Syrian hamsters following single intravenous and oral administration of an exemplary compound. Compound 13 (an exemplary compound) was formulated in dimethyl sulfoxide (DMSO)/Solutol® HS 15 (BASF, Germany)/phosphate buffered saline (PBS, Sigma, USA) (5/5/90, v/v/v) at 0.2 mg/mL for IV injection and polyethylene glycol (PEG) 200 (Sigma, USA)/water for injection (WFI; Tai-Yu, Taiwan) (50/50, v/v) at 1 mg/mL for PO administration. The dosing volumes were 5 mL/kg for IV and 10 mL/kg for PO. Hamsters from Group 1 received an intravenous bolus via jugular vein of 1 mg/kg of compound 13 (an exemplary compound). On the other hand, hamsters from Group 2 received an intragastric bolus of 10 mg/kg of compound 13 (an exemplary compound) using feeding needles. Plasma samples were collected at 5, 10, 15, 30, 60, 120, 240, 360, 480 and 1440 minutes post-dose in both IV and PO groups. Hamsters from group 3 were not dosed and were used to collect samples of zero time point and baseline levels of FAP activity and endogenous FGF21. […]

[3] = system: MC38 mouse colon cancer cell line; assay: Tumor inhibition in vivo (MC38 tumor in C57/BL6 mice); details: 50 mg/kg orally twice daily from day 7 to day 22; no statistical significance observed
Description: Female C57/BL6 mice (approximately 8-9 weeks old; 20-21 gr) obtained from the vivarium of Fundación Ciencia & Vida (Santiago, Chile) were maintained in a temperature-controlled room with 12/12 hour light/dark schedule with food and water ad libitum. The mice were acclimated for a minimum period of 4 days upon arrival at the testing facility.
MC38 mouse colon cancer cell line was maintained as monolayer culture in DMEM-F12 (Cat. No.: SH30023.01, Hyclone) supplemented with 10% fetal bovine serum (Cat. No.: 16000, Gibco) and penicillin/streptomycin (Cat. No.: 15140122, Gibco) at 37° C. in an atmosphere with 5% CO2. The cells were routinely subcultured every 3 days to maintain growth at exponential phase. […] Cell pellet was resuspended in approximately 10× volume of cell culture medium and counted. Cell viability was determined to be >95% by trypan blue staining.
At the day of inoculation, female C57/B16 mice (n=15 total) were weighed and identified by marking the tail with numbers using a non-toxic permanent marker. […] Tumors were measured three times per week with digital calipers and tumors volumes, expressed in mm^3, were calculated with the following formula: Tumor volume (mm^3)=(a×b^2)/2 […]
Seven days after inoculation, mean tumor volume was about 100 mm^3. […] Body weight of the mice and tumor volume was recorded two or three times per week for a total of 22 days. […]

Row | Compound | FAP activity in plasma compared with baseline levels [1] | levels of total endogenous FGF21 in plasma ([1]; ELISA) | AUC(0-t) ([2]; intravenous 1 mg/kg) [ng·h/mL] | AUC(0-t) ([2]; oral 10 mg/kg) [ng·h/mL] | tumor volume vs vehicle [3]
1 | N#C[C@@H]1CC(F)(F)CN1C(=O)CNC(=O)c1ccncc1-c1ccccc1 [Compound 13, (S)—N-(2-(2-cyano-4,4-difluoropyrrolidin-1-yl)-2-oxoethyl)-3-phenylisonicotinamide] | diminished quickly | increased in the most of hamsters | 255 | 350 | –
2 | N#C[C@@H]1CC(F)(F)CN1C(=O)CNC(=O)c1ccncc1C1CC1 [Compound 24, (S)—N-(2-(2-cyano-4,4-difluoropyrrolidin-1-yl)-2-oxoethyl)-3-cyclopropylisonicotinamide] | – | – | – | – | smaller volume of tumor

— US11780821B2, “Inhibitors of fibroblast activation protein” (Praxis Biotech LLC, priority 2017, dated 2023)
